{"source": "patent US12139505B2", "about": "“Compositions useful in therapy of autophagy-related pathologies, and methods of making and using the same” (The University of Toledo, priority 2017, dated 2024)", "key": {"RG2 glioma cells": {"tested_on": "RG2 glioma cells", "assay": "Autophagic flux assay (LC3-II western blot in the presence of bafilomycin-A1)", "assay_type": "cell-based, rat", "conditions": "RG2 glioma cells, 4 h, 50 nM bafilomycin-A1, western blot", "protocol": "In the assay, cells are treated with subtoxic concentrations of bafilomycin-A, which blocks lysosomal acidification. This prevents autophagosome fusion with lysosomes at a specific point. For example, RG2 glioma cells (or other cell types) are “clamped” by addition of 10-50 nM bafilomycin-A1 to block autophagosome fusion with lysosomes and eliminate autophagy clearance. Then, autophagy flux is measured by the conjugation of phosphatidylethanolamine to LC3-I, yielding an electrophoretically separable LC3-II by western blot. LC3-II acts as a link between nascent autophagosomes and cargo being directed into these structures. An autophagy enhancer will increase LC3-II in the presence of bafilomycin, whereas a compound that inhibits autophagy completion will not do so. Thus, the L3A-I to LC3A-II conversion in the presence of bafilomycin-A1 constitutes a valid measure of autophagy.\nFor the assays, rat glioma cells RG2 (ATCC® CRL-2433™; RG2 cells) were cultured. […] The cells were then incubated for an additional 4 h. At termination, the cell culture medium was removed, cells were washed with PBS and lysed on ice in Pierce RIPA buffer containing protease and phosphatase inhibitors.\nWestern Blotting: The proteins were electrophoresed and wet-blotted to polyvinylidine difluoride membranes, blocked overnight in 4% bovine serum albumin, and developed using antibodies obtained from Cell Signaling Technology (L3A: cat #. 4599; ULK1: cat #. 8054, ULK1(p757): cat #. 6880).\nRG2 glioma cells were treated without drug (first column in FIG. 8A) or 4 h with 50 nM bafilomycin-A1 (BAF), the indicated concentration of LK, or the phosphonate analog 2-isopropyl-LK-3-phosphonate. The western blot results are shown in FIG. 8A, where the lower band corresponds to LC3-II. An increase in the intensity of this band in the presence of bafilomycin-A1 indicates increased autophagic flux. […] Similar results are shown in FIG. 9 with respect to the LK-P compound 2-butyl-lanthionine-phosphonate (also referred to as 2-n-butyl-lanthionine-phosphonate or 2-n-butyl-LK-P).\nRG2 glioma cells (American Tissue Type Collection, ATTC, Rockville MD USA) were treated for 4 h with 50 nM bafilomycin-A1 (previously dissolved to 1000× final concentration in dimethylsulfoxide). Thirty minutes after addition of bafilomycin, cells were treated with test agents at 100× final concentration. Cells were lysed in RIPA buffer containing protease and phosphatase inhibitors. Protein concentration was assayed and normalized to constant values (typically 5-7 mg/mL). Proteins were electrophoresed across 4-20% polyacrylamide gels and wet blotted onto polyvinylidine difluoride (PVDF) membranes. Proteins were blotted with commercially available antibodies against LC3."}, "people with ALS": {"tested_on": "people with ALS", "conditions": "cited from earlier work"}, "ULK1 system in RG2 cells": {"tested_on": "ULK1 system in RG2 cells", "assay": "ULK1/ULK1(p757) quantitative autophagy stimulation assay", "assay_type": "cell-based, rat", "conditions": "24 h in RG2 cells; read-out: EC50 on the ULK1 system (ULK1 increase and ULK1(p757) decrease)", "text": "For validation purposes, a second, quantitative autophagy stimulation assay was utilized."}, "pMCAO": {"tested_on": "pMCAO", "conditions": "after pMCAO; cited from earlier work"}, "3×Tg-AD mouse": {"tested_on": "3×Tg-AD mouse", "conditions": "cited from earlier work"}, "[1]": {"conditions": "measurement of brain LKE levels and animal studies; cited from earlier work"}, "C6 glioma tumor": {"tested_on": "C6 glioma tumor", "conditions": "C6 glioma xenograft into rat cortices; cited from earlier work"}, "SOD1^G93A mouse": {"tested_on": "SOD1^G93A mouse", "conditions": "cited from earlier work"}, "HeLa cells": {"tested_on": "HeLa cells", "assay": "Rescue of HeLa cells from TNFa toxicity, tetrazolium reduction assay", "assay_type": "cell-based", "conditions": "20 h 10 ng/mL TNFa, 10 micromolar cycloheximide", "protocol": "HeLa cells were treated 20 h with 10 ng/mL recombinant human TNFa in the presence of 10 micromolar cycloheximide and viability measured by tetrazolium reduction assay."}, "[2]": {"assay": "Stability of the isolated solid to high vacuum", "assay_type": "physicochemical", "conditions": "isolated white solid, at least overnight"}}, "note": "“Also recorded” adds a separate entry of the source.", "data": [{"smiles": "CC(C)C1=C(P(=O)(O)O)NCCS1", "note": "[2-isopropyl-AECK-P]", "values": [{"measurement": "autophagic flux / autophagy stimulation (LC3-II band in the presence of bafilomycin-A1)", "setting": "RG2 glioma cells", "value": "greater autophagy activation effect than LKE"}, {"measurement": "autophagic flux / autophagy stimulation (LC3-II band in the presence of bafilomycin-A1)", "setting": "RG2 glioma cells; listed as 2-isopropyl AECK-P", "value": "comparable activity"}]}, {"smiles": "CC1=NN(c2ccccc2)C(=O)C1", "note": "[edaravone]", "values": [{"measurement": "clinical decline in daily functioning", "setting": "people with ALS; people with ALS", "value": "slows the clinical decline in daily functioning"}]}, {"smiles": "O=C(O)C1=CSC[C@@H](C(=O)O)N1", "note": "[LK, (5R)-3,5,-dicarboxy-1-thia-4-aza-2-cyclohexene, reference compound]", "values": [{"measurement": "autophagic flux / autophagy stimulation (LC3-II band in the presence of bafilomycin-A1)", "setting": "RG2 glioma cells", "value": "increase autophagic flux"}]}, {"smiles": "CCOC(=O)C1=CSCC(C(=O)O)N1", "note": "(stereo not shown) [LKE, lanthionine ketenamine ethyl ester]", "values": [{"measurement": "autophagic flux / autophagy stimulation (LC3-II band in the presence of bafilomycin-A1)", "setting": "RG2 glioma cells", "value": "stimulate autophagy to varying degrees"}, {"measurement": "EC50", "setting": "ULK1 system in RG2 cells", "value": "~50", "unit": "nM"}, {"measurement": "infarct volume and functional recovery", "setting": "pMCAO", "value": "decreases infarct volume and improves functional recovery"}, {"measurement": "amyloid burden, phospho-tau, microglial activation, cognitive decline", "setting": "3×Tg-AD mouse", "value": "decreases amyloid burden inside neurons and in plaques, decreases phospho-tau accumulation, decreases microglial activation, and slows cognitive decline"}, {"measurement": "βββ (blood brain barrier) penetrability", "setting": "[1]", "value": "good βββ penetrability"}, {"measurement": "tumor growth", "setting": "C6 glioma tumor", "value": "slows growth of C6 glioma tumor"}, {"measurement": "lifespan and motor function", "setting": "SOD1^G93A mouse", "value": "increases lifespan and slows decline of motor function"}]}, {"smiles": "CC(C)C1=C(P(=O)(O)O)N[C@H](C(=O)O)CS1", "note": "[2-isopropyl-LK-P, 2-isopropyl lanthionine ketimine phosphonate]", "values": [{"measurement": "cell death stemming from TNFa treatment", "setting": "HeLa cells", "value": "reduced cell death"}, {"measurement": "EC50", "setting": "HeLa cells; Homo sapiens, HeLa, compound 1 h before, read-out: EC50% for reduction of cell death from TNFa", "value": "~10", "unit": "mM"}, {"measurement": "autophagic flux / autophagy stimulation (LC3-II band in the presence of bafilomycin-A1)", "setting": "RG2 glioma cells", "value": "stimulates autophagy in RG2 cells at low micromolar concentrations; also recorded: much more potent stimulator of autophagy than LK; also recorded: comparable activity; also recorded: stimulate autophagy to varying degrees; also recorded: increase autophagic flux"}, {"measurement": "autophagic flux / autophagy stimulation (LC3-II band in the presence of bafilomycin-A1)", "setting": "RG2 glioma cells; listed as 2-isopropyl lanthionine-ketimine-phosphonate", "value": "clearly was more potent at 10 mM than was LK"}, {"measurement": "autophagic flux / autophagy stimulation (LC3-II band in the presence of bafilomycin-A1)", "setting": "RG2 glioma cells; listed as 2-isopropyl-lanthionine-ketimine-3-phosphonate", "value": "clearly more potent at 10 μM than LK was"}, {"measurement": "stability to high vacuum pressures", "setting": "[2]", "value": "stable to high vacuum pressures at least overnight without visual or spectral decomposition"}]}, {"smiles": "CCCCC1=C(P(=O)(O)O)N[C@H](C(=O)O)CS1", "values": [{"measurement": "autophagic flux / autophagy stimulation (LC3-II band in the presence of bafilomycin-A1)", "setting": "RG2 glioma cells", "value": "comparable activity; also recorded: stimulate autophagy to varying degrees; also recorded: greater autophagy activation effect than LKE"}, {"measurement": "autophagic flux / autophagy stimulation (LC3-II band in the presence of bafilomycin-A1)", "setting": "RG2 glioma cells; listed as 2-butyl-LK-P", "value": "more effective at inducing autophagic flux than, inter alia, LK-E"}, {"measurement": "stability to high vacuum pressures", "setting": "[2]", "value": "stable to high vacuum pressures at least overnight without visual or spectral decomposition"}]}, {"smiles": "Nc1nc2ccc(OC(F)(F)F)cc2s1", "note": "[Riluzole]", "values": [{"measurement": "prolongation of life", "setting": "people with ALS; ALS patients", "value": "2-3 months"}]}, {"smiles": "CCOC(=O)[C@@H]1CSC(CC)=C(C(=O)O)N1", "note": "[Compound 2-ethyl-LKE]", "values": [{"measurement": "autophagic flux / autophagy stimulation (LC3-II band in the presence of bafilomycin-A1)", "setting": "RG2 glioma cells", "value": "stimulate autophagy in RG2 cells"}]}]}
